System: SCC cells
Assay type: in vivo, C3H/HeN mice
Settings: 5 mg/kg intraperitoneal twice weekly; Example 7, FIG. 8

“bevacizumab: FDA-approved anti-angiogenic monoclonal antibody that binds the receptor binding domain of VEGF” was tested, and the “tumor growth inhibition compared with the control” value was “about 74%”.
